Results as given in US6737383B1, “Herbicidal oxadiazolidines” (priority 1999, dated 2004).

What was measured:
[1] = test system: morningglory; assay: Test B pre/postemergence morningglory; format: in vivo, Ipomoea hederacea
How it was run: (§1)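 Test chemicals in a non-phytotoxic solvent mixture with surfactant were sprayed preemergence onto planted seeds and postemergence onto plants 2 to 18 cm tall (1- to 4-leaf stage). After twelve to sixteen days in a greenhouse, injury was visually rated against untreated controls from 0 (no effect) to 10 (complete control).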

[2] = test system: surinam grass; assay: Test B pre/postemergence surinam grass; format: in vivo, Brachiaria decumbens
How it was run: as §1

[3] = test system: corn; assay: Test B pre/postemergence corn; format: in vivo, Zea mays
How it was run: as §1

[4] = test system: cocklebur; assay: Test B pre/postemergence cocklebur; format: in vivo, Xanthium strumarium
How it was run: as §1

[5] = test system: rice; assay: Test B flood test rice; format: in vivo, Oryza sativa; conditions: for Rice plant response rating: Postemergence section (flood test species)
How it was run: (§2)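 Each value is a visual injury score relative to controls, with 10 meaning complete control and 0 no effect. Evaluation took place twelve to sixteen days after the 2-leaf-stage plants were treated and kept in the greenhouse.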

[6] = test system: blackgrass; assay: Test B pre/postemergence blackgrass; format: in vivo, Alopecurus myosuroides
How it was run: as §1

[7] = test system: smallflower flatsedge; assay: Test B flood test smallflower flatsedge; format: in vivo, Cyperus difformis; conditions: for S. Flatsedge plant response rating: Postemergence section (flood test species)
How it was run: as §2

[8] = test system: bamyardgrass; assay: Test B flood test barnyardgrass; format: in vivo, Echinochloa crus-galli
How it was run: as §2

[9] = test system: purple nutsedge; assay: Test B pre/postemergence purple nutsedge; format: in vivo, Cyperus rotundus
How it was run: as §1

[10] = test system: sugar beet; assay: Test B pre/postemergence sugar beet; format: in vivo, Beta vulgaris
How it was run: as §1

[11] = test system: velvetleaf; assay: Test B pre/postemergence velvetleaf; format: in vivo, Abutilon theophrasti
How it was run: as §1

[12] = test system: rape; assay: Test B pre/postemergence rape; format: in vivo, Brassica napus
How it was run: as §1

[13] = test system: wild oat; assay: Test B pre/postemergence wild oat; format: in vivo, Avena fatua
How it was run: as §1

[14] = test system: soybean; assay: Test B pre/postemergence soybean; format: in vivo, Glycine max
How it was run: as §1

[15] = test system: pigweed; assay: Test B pre/postemergence pigweed; format: in vivo, Amaranthus retroflexus
How it was run: as §1

[16] = Postemergence, Rate 250 g/ha, scale 0 to 10, 0 is no effect, 10 is complete control
[17] = Postemergence, Rate 500 g/ha, scale of 0 to 10 where 0 is no effect and 10 is complete control
[18] = Preemergence, Rate 62 g/ha, scale 0 to 10 (0 no effect, 10 complete control)
[19] = Preemergence, Rate 125 g/ha, scale of 0 to 10 where 0 is no effect and 10 is complete control
[20] = Preemergence, Rate 250 g/ha, scale 0 to 10, 0 is no effect, 10 is complete control
[21] = Preemergence, Rate 500 g/ha, scale 0 to 10, 0 is no effect, 10 is complete control
[22] = Rate 125 g/ha, Postemergence, scale 0 to 10, 0 is no effect, 10 is complete control
[23] = Preemergence, Rate 250 g/ha, scale of 0 to 10 where 0 is no effect and 10 is complete control
[24] = Rate 62 g/ha, Postemergence, scale of 0 to 10 where 0 is no effect and 10 is complete control
[25] = Rate 500 g/ha, scale of 0 to 10 where 0 is no effect and 10 is complete control
[26] = Rate 125 g/ha, scale 0 to 10, 0 is no effect, 10 is complete control
[27] = flood test species, listed under Postemergence, Rate 250 g/ha, scale 0 to 10, 0 is no effect, 10 is complete control

For `CC(C)N(C(=O)n1oc(=O)n(CCl)c1=O)c1ccc(Cl)cc1` [Compound 422], the “Plant response rating, Morningglory” value [1, 16] was 0, the “Morningglory plant response rating” value [1, 17] was 0 and the “Plant response rating, Morningglory” value [1, 18] was 0. For the same molecule, the “Plant response rating, Morningglory” value [1, 19] was 0, the “Morningglory plant response rating” value [1, 20] was 0 and the “Morningglory plant response rating” value [1, 21] was 0. For the same molecule, the “Morningglory plant response rating” value [1, 22] was 0, the “Plant response rating, B. signalgrass” value [2, 16] was 0 and the “B. signalgrass plant response rating” value [2, 17] was 0. The “Plant response rating, B. signalgrass” value [2, 18] was 0, the “Plant response rating, B. signalgrass” value [2, 19] was 0 and the “B. signalgrass plant response rating” value [2, 23] was 0. For the same molecule, the “B. signalgrass plant response rating” value ([2]; Preemergence, Rate 500 g/ha, scale of 0 to 10 where 0 is no effect and 10 is complete control) was 0, the “B. signalgrass plant response rating” value [2, 24] was 0 and the “B. signalgrass plant response rating” value [2, 22] was 0. The “Plant response rating, Corn” value [3, 16] was 0, the “Corn plant response rating” value [3, 17] was 0 and the “Plant response rating, Corn” value [3, 18] was 0. The “Plant response rating, Corn” value [3, 19] was 0, the “Corn plant response rating” value [3, 20] was 0 and the “Corn plant response rating” value [3, 21] was 0. For the same molecule, the “Corn plant response rating” value [3, 24] was 0, the “Corn plant response rating” value [3, 22] was 0 and the “Plant response rating, Cocklebur” value [4, 16] was 0. The “Cocklebur plant response rating” value [4, 17] was 0, the “Plant response rating, Cocklebur” value [4, 18] was 0 and the “Plant response rating, Cocklebur” value [4, 19] was 0. For the same molecule, the “Cocklebur plant response rating” value [4, 20] was 0, the “Cocklebur plant response rating” value [4, 21] was 0 and the “Cocklebur plant response rating” value [4, 24] was 0. The “Cocklebur plant response rating” value [4, 22] was 0, the “Rice plant response rating” value [5, 25] was 0 and the “Rice plant response rating” value [5, 26] was 0. The “Plant response rating, Rice” value [5, 27] was 0, the “Plant response rating, Blackgrass” value [6, 16] was 0 and the “Blackgrass plant response rating” value [6, 17] was 0. For the same molecule, the “Plant response rating, Blackgrass” value [6, 18] was 0, the “Plant response rating, Blackgrass” value [6, 19] was 0 and the “Blackgrass plant response rating” value [6, 23] was 0. For the same molecule, the “Blackgrass plant response rating” value [6, 21] was 0, the “Blackgrass plant response rating” value [6, 24] was 0 and the “Blackgrass plant response rating” value [6, 22] was 0. The “S. Flatsedge plant response rating” value [7, 25] was 0, the “S. Flatsedge plant response rating” value [7, 26] was 0 and the “Plant response rating, S. Flatsedge” value [7, 27] was 0. For the same molecule, the “Barnyardgrass plant response rating” value ([8]; Postemergence section (flood test species), Rate 500 g/ha, scale of 0 to 10 where 0 is no effect and 10 is complete control) was 0, the “Barnyardgrass plant response rating” value ([8]; Rate 62 g/ha, Postemergence (flood test species), scale of 0 to 10 where 0 is no effect and 10 is complete control) was 0 and the “Barnyardgrass plant response rating” value ([8]; Rate 125 g/ha, Postemergence section (flood test species), scale 0 to 10, 0 is no effect, 10 is complete control) was 0. For the same molecule, the “Plant response rating, Barnyardgrass” value [8, 27] was 0, the “Plant response rating, Nutsedge” value [9, 16] was 0 and the “Nutsedge plant response rating” value [9, 17] was 0. The “Plant response rating, Nutsedge” value [9, 18] was 0, the “Plant response rating, Nutsedge” value [9, 19] was 0 and the “Nutsedge plant response rating” value [9, 20] was 0. The “Nutsedge plant response rating” value [9, 21] was 0, the “Nutsedge plant response rating” value [9, 22] was 0 and the “Plant response rating, Sugarbeets” value [10, 16] was 0. For the same molecule, the “Sugarbeets plant response rating” value [10, 17] was 0, the “Plant response rating, Sugarbeets” value [10, 18] was 0 and the “Plant response rating, Sugarbeets” value [10, 19] was 0. For the same molecule, the “Sugarbeets plant response rating” value [10, 20] was 0, the “Sugarbeets plant response rating” value [10, 21] was 0 and the “Sugarbeets plant response rating” value [10, 22] was 0. For the same molecule, the “Plant response rating, Velvetleaf” value [11, 16] was 0, the “Velvetleaf plant response rating” value [11, 17] was 0 and the “Plant response rating, Velvetleaf” value [11, 18] was 0. The “Plant response rating, Velvetleaf” value [11, 19] was 0, the “Velvetleaf plant response rating” value [11, 20] was 0 and the “Velvetleaf plant response rating” value [11, 21] was 0. The “Velvetleaf plant response rating” value [11, 22] was 0, the “Plant response rating, Rape” value [12, 16] was 0 and the “Rape plant response rating” value [12, 17] was 0. The “Plant response rating, Rape” value [12, 18] was 0, the “Plant response rating, Rape” value [12, 19] was 0 and the “Rape plant response rating” value [12, 20] was 0. For the same molecule, the “Rape plant response rating” value [12, 21] was 0, the “Rape plant response rating” value [12, 22] was 0 and the “Wild oats plant response rating” value [13, 17] was 0. For the same molecule, the “Plant response rating, Wild oats” value [13, 18] was 0, the “Plant response rating, Wild oats” value [13, 19] was 0 and the “Wild oats plant response rating” value [13, 20] was 0. For the same molecule, the “Wild oats plant response rating” value [13, 21] was 3, the “Wild oats plant response rating” value [13, 22] was 0 and the “Plant response rating, Soybean” value [14, 16] was 3. The “Soybean plant response rating” value [14, 17] was 4, the “Plant response rating, Soybean” value [14, 18] was 0 and the “Plant response rating, Soybean” value [14, 19] was 0. For the same molecule, the “Soybean plant response rating” value [14, 20] was 0, the “Soybean plant response rating” value [14, 21] was 0 and the “Soybean plant response rating” value [14, 22] was 3. For the same molecule, the “Plant response rating, Redroot pigweed” value [15, 16] was 0, the “Redroot pigweed plant response rating” value [15, 17] was 0 and the “Plant response rating, Redroot pigweed” value [15, 18] was 0. The “Plant response rating, Redroot pigweed” value [15, 19] was 0, the “Redroot pigweed plant response rating” value [15, 20] was 0 and the “Redroot pigweed plant response rating” value [15, 21] was 0. For the same molecule, the “Redroot pigweed plant response rating” value [15, 22] was 0.
